Assay [1] relates to M229 R sub-lines (M229 R5). Briefly: Cell survival / proliferation assay (72 h). Format: cell-based, human. As to conditions: M229 R5, 72 h, PLX4032-resistant cells grown with PLX4032. The procedure:
(§1) Cells were maintained in Dulbecco's modified Eagle medium (DMEM) with 10 or 20% fetal bovine serum and glutamine. shRNAs were sub-cloned into the lentiviral vector pLL3.7 and infections carried out with protamine sulphate. Stocks of PLX4032 (Plexxikon) and AZD6244 (commercially available) were made in DMSO. Cells were quantified using CellTiter-GLO Luminescence (Promega).
(§2) Cell proliferation experiments were performed in a 96-well format (five replicates), and baseline quantification performed at 24 h after cell seeding along with initiation of drug treatments (72 h). Stocks and dilutions of PLX4032 (Plexxikon), AZD6244 (Selleck Chemicals) and U0126 (Promega) were made in DMSO. siRNA pool (Dharmacon) transfections were carried out in 384-well format. TransIT transfection reagent (Mirus) was added to each well and incubated at 37° C. for 20 min. Subsequently, cells were reverse transfected, and the mixture was incubated for 51-61 h at 37° C. Cells were quantified using CellTiter 96 Aqueous One Solution (Promega) or CellTiter-GLO Luminescence (Promega) following the manufacturer's recommendations.

Assay [2] relates to Pt48 R short-term culture. Kind of assay: Cell survival / proliferation assay (72 h). Format: cell-based, human. The conditions noted are these: for growth sensitivity to inhibitor: 72 h, PLX4032-resistant cells grown with PLX4032. The procedure: as §1, §2
The test system of assay [3] is Pt55 R short-term culture. Briefly: Cell survival / proliferation assay (72 h). In kind it is cell-based, human. As to conditions: for growth sensitivity to MEK inhibition: 72 h, in the presence or absence of PLX4032. How it is done:
as §1, §2

For assay [4], the system named is M238 R sub-lines (M238 R1). Kind of assay: Cell survival / proliferation assay (72 h). In kind it is cell-based, human. As to conditions: M238 R1, 72 h, PLX4032-resistant cells grown with PLX4032. The procedure:
as §1, §2

The subject of a further assay is M395 R. Kind of assay: Cell survival assay (72 h). The conditions noted are these: M395 R (V600EB-RAF amplification-driven), 72 h. In kind it is cell-based, human. The text has this: (§3) Cell culture, infections and drug treatments. Cells were maintained in DMEM with 10 or 20% fetal bovine serum and glutamine. shRNAs for B-RAF and C-RAF were sub-cloned into the lentiviral vector pLL3.7; pBabe B-RAF (V600E) was purchase (plasmid 17544, Addgene); viral supernatants generated by co-transfection with three packaging plasm ids into HEK293T cells; and infections carried out with protamine sulfate. Stocks and dilutions of PLX4032 (Plexxikon, Berkeley, Calif.) and AZD6244 (commercially available) were made in DMSO. Cells were quantified using CellTiter-GLO Luminescence (Promega) or crystal violet staining followed by NIH Image J quantification.

For assay [5], the system named is M249 R sub-line (M249 R4). Briefly: Cell survival / proliferation assay (72 h). In kind it is cell-based, human. The conditions noted are these: for growth sensitivity to MEK inhibition: M249 R4, 72 h, in the presence or absence of PLX4032. The procedure:
as §1, §2, §3

Assay [6] relates to SKMEL-239 PLX4032-resistant clones C1-5. Briefly: Proliferation assay of PLX4032-resistant clones. In kind it is cell-based, human. As to conditions: all five resistant clones, albeit at slightly higher doses. How it is done:
Cell proliferation and cell cycle analysis. All melanoma cell lines were generated by A. Houghton (MSKCC) or obtained from ATCC. 293H cells were obtained from Invitrogen. Cells were maintained in DMEM (293H and MEFs), or RPMI (all other cell lines) supplemented with 2 mM glutamine, antibiotics and 10% fetal bovine serum. We confirmed by DNA fingerprinting^20 that all PLX4032-resistant, SKMEL-239 clones were derived from the same patient, thus excluding the possibility of contamination (Table 6). For proliferation assays, cells were plated in 6 well plates and 24 hours later were treated with varying concentrations of inhibitors as indicated. IC50 values were calculated using Graph Pad Prism v.5. For cell cycle and apoptosis studies, cells were seeded in 6 well dishes the day prior to drug treatment. For analysis, both adherent and floating cells were harvested and stained with ethidium bromide as described previously^21.

Assay [7] has as its target T1, V5-tagged p61 BRAF(V600E/R509H) (human, UniProt P15056 1-766).
T1 construct: domain: splice variant lacking exons 4-8 (554 amino acids); Co-expressed with the FLAG-tagged form in 293H cells; also called dimerization mutant p61 BRAF(V600E/R509H); not shown: V5 tag
Kind of assay: co-immunoprecipitation of FLAG- and V5-tagged forms from 293H cells.

The values below come from US20130217721A1, “COMPOSITIONS AND METHODS FOR DETECTION AND TREATMENT OF B-RAF INHIBITOR-RESISTANT MELANOMAS” (The Regents of the University of California, priority 2010, published 2013).

Turning to `Cn1cnc2c(F)c(Nc3ccc(Br)cc3Cl)c(C(=O)NOCCO)cc21` [AZD6244], the “growth sensitivity to inhibitor” value in assay [1], in assay [2] and in assay [4] was “highly resistant” throughout. The “growth sensitivity to MEK inhibition” value in assay [3] and in assay [5] was “sensitive” in each case. The “proliferation under MEKi treatment” value in the assay on M395 R is listed as “decreased proliferation”; in assay [5] (M249 R4 (Q61KN-RAS-driven), 72 h), “decreased proliferation”.

Consider `O=C(NOC[C@H](O)CO)c1ccc(F)c(F)c1Nc1ccc(I)cc1F` [PD0325901], for which the “sensitivity to the MEK inhibitor” value in assay [6] is given as “retained sensitivity”.

Take `CCCS(=O)(=O)Nc1ccc(F)c(C(=O)c2c[nH]c3ncc(Cl)cc23)c1F` [PLX4720]: the “growth resistance to B-RAF inhibitor” value in assay [2] and in assay [3] was “resistance” throughout.

`N#CC(=C(/N)Sc1ccccc1N)/C(C#N)=C(\N)Sc1ccccc1N` [U0126]: the “growth sensitivity to inhibitor” value in assay [1], in assay [2] and in assay [4] was “highly resistant” throughout. The “growth sensitivity to MEK inhibition” value in assay [3] and in assay [5] was “sensitive” throughout.

B1: FLAG-tagged p61 BRAF(V600E/R509H) (enzyme, human, UniProt P15056 1-766, looked up)
chain: MAALSGGGGGGAEPGQALFNGDMEPEAGAGAGAAASSAADPAIPEEVWNIKQMIKLTQEHIEALLDKFGGEHNPPSIYLEAYEEYTSKLDALQQREQQLLESLGNGTDFSVSSSASMDTVTSSSSSSLSVLPSSLSVFQNPTDVARSNPKSPQKPIVRVFLPNKQRTVDLIRDQGFRGDGGSTTGLSATPPASLPGSLTNVKALQKSPGPQRERKSSSSSEDRNRMKTLGRRDSSDDWEIPDGQITVGQRIGSGSFGTVYKGKWHGDVAVKMLNVTAPTPQQLQAFKNEVGVLRKTHHVNILLFMGYSTKPQLAIVTQWCEGSSLYHHLHIIETKFEMIKLIDIARQTAQGMDYLHAKSIIHRDLKSNNIFLHEDLTVKIGDFGLATEKSRWSGSHQFEQLSGSILWMAPEVIRMQDKNPYSFQSDVYAFGIVLYELMTGQLPYSNINNRDQIIFMVGRGYLSPDLSKVRSNCPKAMKRLMAECLKKKRDERPLFPQILASIELLARSLPKIHRSASEPSLNRAGFQTEDFSLYACASPKTPIQAGGYGAFPVH
notes: domain: splice variant lacking exons 4-8 (554 amino acids); Expressed in 293H cells; immunoprecipitated with FLAG antibody; also called dimerization-deficient mutant; not shown: FLAG tag
With B1, in assay [7], the binding result was “no binding”.
